From the NIST ThermoML archive (doi:10.1016/j.jct.2007.03.010)

Experiment: excess molar enthalpy (molar enthalpy of mixing); xn = mol fraction of the nth substance listed
Details: 101 kPa, Liquid, Calvet calorimetry

CC(O)CN (stereo not drawn) [1-amino-2-propanol] + O
Details | excess molar enthalpy [kcal/mol]
298.15 K, x1 = 0.03 | -0.119
298.15 K, x1 = 0.0501 | -0.186
298.15 K, x1 = 0.0697 | -0.241
298.15 K, x1 = 0.1002 | -0.324
298.15 K, x1 = 0.1505 | -0.419
298.15 K, x1 = 0.2012 | -0.488
298.15 K, x1 = 0.2994 | -0.572
298.15 K, x1 = 0.3496 | -0.593
298.15 K, x1 = 0.3993 | -0.592
298.15 K, x1 = 0.4465 | -0.579
298.15 K, x1 = 0.494 | -0.554
298.15 K, x1 = 0.6033 | -0.481
298.15 K, x1 = 0.7155 | -0.365
298.15 K, x1 = 0.7954 | -0.27
298.15 K, x1 = 0.8847 | -0.173
313.15 K, x1 = 0.0304 | -0.134
313.15 K, x1 = 0.0701 | -0.253
313.15 K, x1 = 0.1001 | -0.326
313.15 K, x1 = 0.15 | -0.421
313.15 K, x1 = 0.1999 | -0.491
313.15 K, x1 = 0.3021 | -0.584
313.15 K, x1 = 0.352 | -0.601
313.15 K, x1 = 0.4015 | -0.598
313.15 K, x1 = 0.5022 | -0.556
313.15 K, x1 = 0.591 | -0.487
313.15 K, x1 = 0.692 | -0.392
313.15 K, x1 = 0.7864 | -0.283
313.15 K, x1 = 0.8808 | -0.174
323.15 K, x1 = 0.0301 | -0.114
323.15 K, x1 = 0.05 | -0.171
323.15 K, x1 = 0.0705 | -0.244
323.15 K, x1 = 0.0999 | -0.308
323.15 K, x1 = 0.1507 | -0.401
323.15 K, x1 = 0.1993 | -0.473
323.15 K, x1 = 0.2999 | -0.551
323.15 K, x1 = 0.3533 | -0.577
323.15 K, x1 = 0.4045 | -0.587
323.15 K, x1 = 0.507 | -0.554
323.15 K, x1 = 0.5849 | -0.497
323.15 K, x1 = 0.6741 | -0.42
323.15 K, x1 = 0.8125 | -0.261
323.15 K, x1 = 0.9073 | -0.144

CN(C)CCO [2-(N,N-dimethylamino)ethanol] + O
Details | excess molar enthalpy [kcal/mol]
298.15 K, x1 = 0.0299 | -0.168
298.15 K, x1 = 0.0705 | -0.347
298.15 K, x1 = 0.1008 | -0.443
298.15 K, x1 = 0.1501 | -0.545
298.15 K, x1 = 0.2052 | -0.618
298.15 K, x1 = 0.301 | -0.68
298.15 K, x1 = 0.349 | -0.692
298.15 K, x1 = 0.4106 | -0.69
298.15 K, x1 = 0.4544 | -0.673
298.15 K, x1 = 0.5365 | -0.615
298.15 K, x1 = 0.6599 | -0.48
298.15 K, x1 = 0.7996 | -0.298
298.15 K, x1 = 0.9156 | -0.133
313.15 K, x1 = 0.0307 | -0.168
313.15 K, x1 = 0.0695 | -0.314
313.15 K, x1 = 0.1196 | -0.46
313.15 K, x1 = 0.2038 | -0.584
313.15 K, x1 = 0.2979 | -0.652
313.15 K, x1 = 0.349 | -0.665
313.15 K, x1 = 0.4063 | -0.663
313.15 K, x1 = 0.4925 | -0.618
313.15 K, x1 = 0.5885 | -0.526
313.15 K, x1 = 0.7046 | -0.403
313.15 K, x1 = 0.7891 | -0.295
313.15 K, x1 = 0.9076 | -0.145
323.15 K, x1 = 0.0301 | -0.158
323.15 K, x1 = 0.0705 | -0.315
323.15 K, x1 = 0.1217 | -0.436
323.15 K, x1 = 0.2027 | -0.556
323.15 K, x1 = 0.3001 | -0.629
323.15 K, x1 = 0.3486 | -0.643
323.15 K, x1 = 0.4001 | -0.641
323.15 K, x1 = 0.4995 | -0.597
323.15 K, x1 = 0.6093 | -0.489
323.15 K, x1 = 0.7618 | -0.309
323.15 K, x1 = 0.9197 | -0.111

CNCCO [2-(methylamino)ethanol] + O
Details | excess molar enthalpy [kcal/mol]
298.15 K, x1 = 0.0302 | -0.127
298.15 K, x1 = 0.0514 | -0.216
298.15 K, x1 = 0.0695 | -0.278
298.15 K, x1 = 0.1002 | -0.354
298.15 K, x1 = 0.1485 | -0.459
298.15 K, x1 = 0.1992 | -0.536
298.15 K, x1 = 0.3021 | -0.638
298.15 K, x1 = 0.3471 | -0.657
298.15 K, x1 = 0.3996 | -0.653
298.15 K, x1 = 0.4471 | -0.637
298.15 K, x1 = 0.5017 | -0.599
298.15 K, x1 = 0.5992 | -0.513
298.15 K, x1 = 0.696 | -0.408
298.15 K, x1 = 0.7988 | -0.291
298.15 K, x1 = 0.8939 | -0.164
313.15 K, x1 = 0.031 | -0.128
313.15 K, x1 = 0.05 | -0.216
313.15 K, x1 = 0.0704 | -0.283
313.15 K, x1 = 0.1011 | -0.38
313.15 K, x1 = 0.1488 | -0.475
313.15 K, x1 = 0.2003 | -0.55
313.15 K, x1 = 0.2983 | -0.631
313.15 K, x1 = 0.3491 | -0.64
313.15 K, x1 = 0.3986 | -0.638
313.15 K, x1 = 0.5035 | -0.601
313.15 K, x1 = 0.5833 | -0.547
313.15 K, x1 = 0.686 | -0.459
313.15 K, x1 = 0.8053 | -0.305
313.15 K, x1 = 0.8956 | -0.162
323.15 K, x1 = 0.0299 | -0.177
323.15 K, x1 = 0.0501 | -0.266
323.15 K, x1 = 0.07 | -0.325
323.15 K, x1 = 0.1008 | -0.396
323.15 K, x1 = 0.1504 | -0.472
323.15 K, x1 = 0.2004 | -0.531
323.15 K, x1 = 0.2985 | -0.614
323.15 K, x1 = 0.3492 | -0.631
323.15 K, x1 = 0.4023 | -0.633
323.15 K, x1 = 0.5108 | -0.592
323.15 K, x1 = 0.6095 | -0.512
323.15 K, x1 = 0.6956 | -0.414
323.15 K, x1 = 0.8039 | -0.279
323.15 K, x1 = 0.8815 | -0.179

NCCCO [3-amino-1-propanol] + O
Details | excess molar enthalpy [kcal/mol]
298.15 K, x1 = 0.0299 | -0.0966
298.15 K, x1 = 0.0705 | -0.222
298.15 K, x1 = 0.1203 | -0.364
298.15 K, x1 = 0.2 | -0.509
298.15 K, x1 = 0.2982 | -0.598
298.15 K, x1 = 0.3452 | -0.62
298.15 K, x1 = 0.4067 | -0.625
298.15 K, x1 = 0.4989 | -0.588
298.15 K, x1 = 0.593 | -0.519
298.15 K, x1 = 0.7515 | -0.366
298.15 K, x1 = 0.8969 | -0.17
313.15 K, x1 = 0.0297 | -0.115
313.15 K, x1 = 0.0702 | -0.245
313.15 K, x1 = 0.12 | -0.375
313.15 K, x1 = 0.2007 | -0.504
313.15 K, x1 = 0.3015 | -0.607
313.15 K, x1 = 0.3458 | -0.629
313.15 K, x1 = 0.3982 | -0.633
313.15 K, x1 = 0.5034 | -0.597
313.15 K, x1 = 0.6045 | -0.508
313.15 K, x1 = 0.7564 | -0.329
313.15 K, x1 = 0.9333 | -0.115
323.15 K, x1 = 0.0298 | -0.154
323.15 K, x1 = 0.0718 | -0.29
323.15 K, x1 = 0.1192 | -0.397
323.15 K, x1 = 0.1996 | -0.512
323.15 K, x1 = 0.3018 | -0.608
323.15 K, x1 = 0.3493 | -0.632
323.15 K, x1 = 0.3947 | -0.637
323.15 K, x1 = 0.5038 | -0.597
323.15 K, x1 = 0.605 | -0.517
323.15 K, x1 = 0.7594 | -0.34
323.15 K, x1 = 0.8801 | -0.18

NCCNCCO [N-(2-aminoethyl)ethanolamine] + O
Details | excess molar enthalpy [kcal/mol]
298.15 K, x1 = 0.0298 | -0.184
298.15 K, x1 = 0.0496 | -0.304
298.15 K, x1 = 0.0699 | -0.409
298.15 K, x1 = 0.0992 | -0.536
298.15 K, x1 = 0.1503 | -0.717
298.15 K, x1 = 0.2015 | -0.824
298.15 K, x1 = 0.2962 | -0.934
298.15 K, x1 = 0.2982 | -0.936
298.15 K, x1 = 0.3484 | -0.958
298.15 K, x1 = 0.3994 | -0.945
298.15 K, x1 = 0.4454 | -0.901
298.15 K, x1 = 0.4962 | -0.834
298.15 K, x1 = 0.505 | -0.821
298.15 K, x1 = 0.5922 | -0.685
298.15 K, x1 = 0.6969 | -0.524
298.15 K, x1 = 0.77 | -0.409
298.15 K, x1 = 0.9077 | -0.186
313.15 K, x1 = 0.0299 | -0.224
313.15 K, x1 = 0.0498 | -0.315
313.15 K, x1 = 0.0701 | -0.411
313.15 K, x1 = 0.1 | -0.559
313.15 K, x1 = 0.1495 | -0.729
313.15 K, x1 = 0.2002 | -0.865
313.15 K, x1 = 0.2956 | -0.984
313.15 K, x1 = 0.3547 | -1.01
313.15 K, x1 = 0.4001 | -0.992
313.15 K, x1 = 0.4461 | -0.95
313.15 K, x1 = 0.4893 | -0.904
313.15 K, x1 = 0.6009 | -0.752
313.15 K, x1 = 0.6723 | -0.638
313.15 K, x1 = 0.7961 | -0.41
313.15 K, x1 = 0.9041 | -0.212
323.15 K, x1 = 0.0301 | -0.147
323.15 K, x1 = 0.0498 | -0.246
323.15 K, x1 = 0.0697 | -0.381
323.15 K, x1 = 0.0992 | -0.487
323.15 K, x1 = 0.1491 | -0.697
323.15 K, x1 = 0.1988 | -0.816
323.15 K, x1 = 0.3014 | -0.912
323.15 K, x1 = 0.3527 | -0.941
323.15 K, x1 = 0.3958 | -0.936
323.15 K, x1 = 0.4971 | -0.86
323.15 K, x1 = 0.5908 | -0.723
323.15 K, x1 = 0.7056 | -0.536
323.15 K, x1 = 0.7484 | -0.463
323.15 K, x1 = 0.8999 | -0.196

CN(CCO)CCO [N-methyldiethanolamine] + O
313.15 K
Details | excess molar enthalpy [kcal/mol]
x1 = 0.1004 | -0.337
x1 = 0.1501 | -0.431
x1 = 0.1986 | -0.496
x1 = 0.2593 | -0.543
x1 = 0.3681 | -0.552
x1 = 0.4312 | -0.535
x1 = 0.4941 | -0.495
x1 = 0.593 | -0.417
x1 = 0.7778 | -0.25
x1 = 0.8203 | -0.208

OCCNCCO [diethanolamine] + O
298.15 K
Details | excess molar enthalpy [kcal/mol]
x1 = 0.0553 | -0.164
x1 = 0.0732 | -0.214
x1 = 0.1001 | -0.273
x1 = 0.2005 | -0.425
x1 = 0.2943 | -0.497
x1 = 0.34 | -0.51
x1 = 0.4007 | -0.498
x1 = 0.4969 | -0.458
x1 = 0.5945 | -0.385
x1 = 0.6597 | -0.332
x1 = 0.7421 | -0.261
x1 = 0.8312 | -0.172
x1 = 0.9283 | -0.0722
